For series [1], the system named is Colletotricum lagenarium. Description: Cucumber Anthracnose greenhouse one-day protectant test. It is filed as in vivo. The following applies: Cucumis sativus, 24 h, read-out: COLLLA percent control rating.
The test system of series [2] is Erysiphe cichoracaerum. Description: Cucumber Powdery Mildew greenhouse one-day protectant test. It is filed as in vivo. The settings on record: 24 h, read-out: ERYSCI percent control rating.
For series [3], the system named is Leptosphaeria nodorum. Description: Glume Blotch of Wheat greenhouse one-day protectant test. It is filed as in vivo. The settings on record: Parastagonospora nodorum, 24 h, read-out: LEPTNO percent control rating.
Series [4] concerns Phytophthora infestans. Description: whole plant or invertebrate. It is filed as in vivo. The following applies: in Solanum lycopersicum, 24 h, read-out: PHYTIN percent control rating, tomato plants, one-day protectant test, 200 ppm application rate.
The subject of series [5] is Puccinia recondita tritici. The series can be described thus: Leaf Rust of Wheat greenhouse one-day protectant test. It is filed as in vivo. The following applies: 24 h, read-out: PUCCRT percent control rating.
The test system of series [6] is Pyricularia oryzae. The series can be described thus: whole plant or invertebrate. The following applies: 24 h, read-out: PYRIOR percent control rating. It is filed as in vivo.
Setting [7] is: cucumber plants, one-day protectant test, 200 ppm application rate.
Setting [8] is: wheat plants, one-day protectant test, 200 ppm application rate.

Where two headings read alike, the source gives them in different places.

The source of these data is patent US7473669B2, “Substituted 4,5-dihydro-1,2,4-triazin-6-ones, 1,2,4-triazin-6-ones, and their use as fungicides” (priority 2005, dated 2009).

One may read the melting point as the temperature of the solid-liquid transition.

On to `O=C1C(SC2CCCCC2)NC(c2cccc(I)c2)=NN1CC(F)(F)F` (centres unmarked) [Compound 49, 5-cyclohexylthio-3-(3-iodophenyl)-1-(2,2,2-trifluoroethyl)-4,5-1,2,4-dihydrotriazin-6(1H)-one], for which the melting point was 172 to 173 °C. The pest or weed control at 200 ppm in series [1] (setting [7]) lay in the range of 80 to 100%. The pest or weed control at 200 ppm in series [2] (setting [7]) lay within 0 to 49%. For the same compound, the pest or weed control at 200 ppm in series [3] (setting [8]) lay in the range of 80 to 100%. In addition, the pest or weed control at 200 ppm in series [4] lay within 0 to 49%. Moreover, the pest or weed control at 200 ppm in series [5] (setting [8]) is 80 to 100%. Moreover, the pest or weed control at 200 ppm in series [6] was in the range of 80 to 100%.
The compound `O=C1CNC(c2cc(-c3ccsc3)cc(-c3ccsc3)c2)=NN1CC(F)(F)F` [Compound 61, 3-(3,5-dithien-3-ylphenyl)-1-(2,2,2-trifluoroethyl)-4,5-dihydro-1,2,4-triazin-6(1H)-one] yielded a melting point of 180 to 182 °C. For the same compound, the pest or weed control at 200 ppm in series [1] (setting [7]) is 0 to 49%. Moreover, the pest or weed control at 200 ppm in series [2] (setting [7]) is 0 to 49%. Moreover, the pest or weed control at 200 ppm in series [3] (setting [8]) is 0 to 49%. In series [4], the pest or weed control at 200 ppm fell in the range of 0 to 49%. In addition, in series [5] (setting [8]), the pest or weed control at 200 ppm fell in the range of 80 to 100%. Further, the pest or weed control at 200 ppm in series [6] is 80 to 100%.
`O=C1CNC(c2cc(Br)cc(-c3ccsc3)c2)=NN1CC(F)(F)F` [Compound 67, 3-(3-Bromo-5-thien-3-ylphenyl)-1-(2,2,2-trifluoroethyl)-4,5-dihydro-1,2,4-triazin-6(1H)-one] came in with a melting point of 167 to 169 °C. Also, in series [1] (setting [7]), the pest or weed control at 200 ppm was 80 to 100%. Besides, the pest or weed control at 200 ppm in series [2] (setting [7]) is 0 to 49%. Further, in series [3] (setting [8]), the pest or weed control at 200 ppm was in the range of 80 to 100%. For the same compound, the pest or weed control at 200 ppm in series [4] lay in the range of 0 to 49%. Also, in series [5] (setting [8]), the pest or weed control at 200 ppm was in the range of 80 to 100%. The pest or weed control at 200 ppm in series [6] lay in the range of 80 to 100%.
For `O=C1CNC(c2cccc(Cc3ccccc3)c2)=NN1CC(F)(F)F` [Compound 73, 3-(3-benzylphenyl)-1-(2,2,2-trifluoroethyl)-4,5-dihydro-1,2,4-triazin-6(1H)-one], the melting point was 104 to 106 °C. In addition, in series [1] (setting [7]), the pest or weed control at 200 ppm lay within 0 to 49%. The pest or weed control at 200 ppm in series [2] (setting [7]) was in the range of 0 to 49%. Moreover, in series [3] (setting [8]), the pest or weed control at 200 ppm lay within 80 to 100%. Besides, the pest or weed control at 200 ppm in series [4] was in the range of 0 to 49%. Also, in series [5] (setting [8]), the pest or weed control at 200 ppm is 80 to 100%. In addition, in series [6], the pest or weed control at 200 ppm was in the range of 80 to 100%.
For the compound `CON=C(c1ccccc1)c1cccc(C2=NN(CC(F)(F)F)C(=O)CN2)c1` [Compound 75, 3-{3-[(Z)-(Methoxyimino)phenyl)methyl]phenyl}-1-(2,2,2-trifluoroethyl)-4,5-dihydro-1,2,4-triazin-6(1H)-one], the melting point was in the range of 119 to 123 °C. Also, in series [1] (setting [7]), the pest or weed control at 200 ppm was 0 to 49%. Also, the pest or weed control at 200 ppm in series [2] (setting [7]) is 0 to 49%. Further, the pest or weed control at 200 ppm in series [3] (setting [8]) lay in the range of 80 to 100%. In series [4], the pest or weed control at 200 ppm is 0 to 49%. Besides, the pest or weed control at 200 ppm in series [5] (setting [8]) is 80 to 100%. The pest or weed control at 200 ppm in series [6] lay in the range of 80 to 100%.
Regarding `O=c1cnc(-c2cc(-c3ccsc3)cc(-c3ccsc3)c2)nn1CC(F)(F)F` [Compound 80, 3-(3,5-dithien-3-ylphenyl)-1-(2,2,2-trifluoroethyl)-1,2,4-triazin-6(1H)-one], the melting point was in the range of 189 to 191 °C. In series [1] (setting [7]), the pest or weed control at 200 ppm fell in the range of 0 to 49%. Moreover, the pest or weed control at 200 ppm in series [2] (setting [7]) was 0 to 49%. In series [3] (setting [8]), the pest or weed control at 200 ppm lay in the range of 0 to 49%. The pest or weed control at 200 ppm in series [4] was 0 to 49%. In addition, the pest or weed control at 200 ppm in series [5] (setting [8]) lay within 50 to 79%. Besides, in series [6], the pest or weed control at 200 ppm lay in the range of 80 to 100%.
Compound `O=c1cnc(-c2cc(Br)cc(-c3ccsc3)c2)nn1CC(F)(F)F` [Compound 84, 3-(3-Bromo-5-thien-3-ylphenyl)-1-(2,2,2-trifluoroethyl)-1,2,4-triazin-6(1H)-one] showed a melting point of 180 to 182 °C. For the same compound, in series [1] (setting [7]), the pest or weed control at 200 ppm lay within 50 to 79%. The pest or weed control at 200 ppm in series [2] (setting [7]) fell in the range of 0 to 49%. Moreover, the pest or weed control at 200 ppm in series [3] (setting [8]) is 80 to 100%. The pest or weed control at 200 ppm in series [4] lay within 0 to 49%. Also, the pest or weed control at 200 ppm in series [5] (setting [8]) lay within 0 to 49%. Moreover, in series [6], the pest or weed control at 200 ppm fell in the range of 80 to 100%.
In the case of `O=c1cnc(-c2cccc(/C=C\c3ccccc3)c2)nn1CC(F)(F)F` [Compound 89], the pest or weed control at 200 ppm fell in the range of 50 to 79% in series [1]; 0 to 49% in series [2]; 80 to 100% in series [3]; 0 to 49% in series [4]; 80 to 100% in series [5]; 80 to 100% in series [6].
For the compound `O=c1cnc(-c2cccc(CC3=CCc4ccccc43)c2)nn1CC(F)(F)F` [Compound 90], the pest or weed control at 200 ppm was 0 to 49% in series [1] (setting [7]); 0 to 49% in series [2] (setting [7]); 50 to 79% in series [3] (setting [8]); 0 to 49% in series [4]; 50 to 79% in series [5] (setting [8]); 80 to 100% in series [6].
Take `O=c1cnc(-c2cccc(Cc3ccccc3)c2)nn1CC(F)(F)F` [Compound 91, 3-(3-Benzylphenyl)-1-(2,2,2-trifluoroethyl)-1,2,4-triazin-6(1H)-one]: the melting point was 95 to 96 °C. For the same compound, the pest or weed control at 200 ppm in series [1] (setting [7]) is 80 to 100%. Further, the pest or weed control at 200 ppm in series [2] (setting [7]) was 80 to 100%. Further, the pest or weed control at 200 ppm in series [3] (setting [8]) was 80 to 100%. For the same compound, in series [4], the pest or weed control at 200 ppm was in the range of 0 to 49%. The pest or weed control at 200 ppm in series [5] (setting [8]) is 80 to 100%. In addition, the pest or weed control at 200 ppm in series [6] was in the range of 80 to 100%.
For `O=c1cnc(-c2cccc(C#Cc3ccccc3)c2)nn1CC(F)(F)F` [Compound 92], the pest or weed control at 200 ppm fell in the range of 80 to 100% in series [1] (setting [7]); 0 to 49% in series [2] (setting [7]); 50 to 79% in series [3] (setting [8]); 50 to 79% in series [4]; 80 to 100% in series [5] (setting [8]); 80 to 100% in series [6].
With `CON=C(c1ccccc1)c1cccc(-c2ncc(=O)n(CC(F)(F)F)n2)c1` [Compound 94, 3-{3-[(Z)-(Methoxyimino)phenyl)methyl]phenyl}-1-(2,2,2-trifluoroethyl)-1,2,4-triazin-6(1H)-one], the melting point was in the range of 127 to 129 °C. In series [1] (setting [7]), the pest or weed control at 200 ppm is 0 to 49%. Further, the pest or weed control at 200 ppm in series [2] (setting [7]) was in the range of 0 to 49%. The pest or weed control at 200 ppm in series [3] (setting [8]) was in the range of 80 to 100%. Further, the pest or weed control at 200 ppm in series [4] is 0 to 49%. Further, in series [5] (setting [8]), the pest or weed control at 200 ppm lay within 80 to 100%. For the same compound, the pest or weed control at 200 ppm in series [6] fell in the range of 80 to 100%.
Take `O=c1cnc(-c2cccc(C(=NOCc3ccccc3)c3ccccc3)c2)nn1CC(F)(F)F` [Compound 95]: the melting point is 139 to 140 °C. Besides, the pest or weed control at 200 ppm in series [1] (setting [7]) was in the range of 0 to 49%. For the same compound, in series [2] (setting [7]), the pest or weed control at 200 ppm was in the range of 0 to 49%. Besides, the pest or weed control at 200 ppm in series [3] (setting [8]) fell in the range of 50 to 79%. For the same compound, the pest or weed control at 200 ppm in series [4] lay within 0 to 49%. Further, in series [5] (setting [8]), the pest or weed control at 200 ppm fell in the range of 0 to 49%. In addition, the pest or weed control at 200 ppm in series [6] is 80 to 100%.
In the case of `C[Si](C)(C)C#CCn1nc(-c2ccc(F)c(Br)c2)ncc1=O` [Compound 96, 3-(3-bromo-4-fluorophenyl)-1-(3-trimethylsilanyl-prop-2-ynyl)-1,2,4-triazin-6(1H)-one], the melting point lay within 103 to 105 °C. Also, the pest or weed control at 200 ppm in series [1] (setting [7]) fell in the range of 50 to 79%. The pest or weed control at 200 ppm in series [2] (setting [7]) lay within 0 to 49%. In addition, the pest or weed control at 200 ppm in series [3] (setting [8]) lay within 0 to 49%. Also, the pest or weed control at 200 ppm in series [4] was in the range of 0 to 49%. Moreover, in series [5] (setting [8]), the pest or weed control at 200 ppm fell in the range of 50 to 79%. For the same compound, the pest or weed control at 200 ppm in series [6] lay in the range of 80 to 100%.
`O=c1cnc(-c2ccc(F)c(Br)c2)nn1Cc1ccc(Cl)nc1` [Compound 97, (3-bromo-4-fluoro-phenyl)-1-(6-chloro-pyridin-3-ylmethyl)-1H-[1,2,4]triazin-6-one]: the pest or weed control at 200 ppm in series [1] (setting [7]) is 50 to 79%; in series [2] (setting [7]) it was 0 to 49%; in series [3] (setting [8]) it was 80 to 100%; in series [4], 0 to 49%; in series [5] (setting [8]), 80 to 100%; in series [6] it was 80 to 100%.
